Experimental data taken from US6969590B2, “Use of a polypeptide for treatment of pruritus in animals” (Zengen, Inc., priority 2001, dated 2005).

How the values were obtained:
NO2^− = test: Nitrite (NO) production by activated N9 microglia; assay type: cell-based, murine; conditions: microglia stimulated with LPS+IFN-γ for 24 hr, micromolar concentrations
Protocol: The N9 clone of murine microglial cells was obtained by immortalization of embryonic brain cultures with the 3RV retrovirus carrying an activated v-myconcogene. N9 cells were cultured in T-75-cm^2 culture flasks (Corning, Cambridge, Mass.) and maintained at 37° C. in a humidified incubator under 5% CO2 atmosphere in RPMI 1640 supplemented with 2 mM L-glutamine, 50 U/mL penicillin G, 50 μg/mL streptomycin sulfate (GIBCO-BBL, Paisley, UK), and 10% heat-inactivated fetal bovine serum (FBS, Hyclone Lab, Inc., Logan, Utah) until experiments were performed. Cells were used between the first and the tenth passage.
Sub-confluent microglial cells were washed twice with phosphate-buffered saline (PBS) and incubated with trypsin 0.025% and ethylenediaminetetraacetate (EDTA) 0.02% without calcium and magnesium for 3 min. at 37° C. to detach the cells from the culture flask. Cells were then resuspended in medium and incubated in 24-well tissue-culture plates at a concentration of 2×10^5 cells/mL for 16 h in a humidified incubator (37° C., 5% CO2). Growth medium was removed and cell monolayers were stimulated with 10 ng/mL lipopolysaccharide (LPS, from Escherichia coli 055:B5, Sigma Chemical Co., St. Louis, Mo.) plus 1 U/ml, murine IFN-γ (Sigma). To test effects of melanocortin peptides, concentrations (1, 10, 25, 50 and 100 μM) of α-MSH (1-13), α-MSH (11-13), and ACTH (1-24) (Sigma) were dissolved in medium and added to wells 10 min before treatment with LPS+IFN-γ. […] Viability of cells was assessed by trypan blue exclusion for each experimental condition; it was consistently >98%. […]
NO is rapidly oxidized to nitrite (NO2) in culture medium, and nitrite concentration is an indicator of NO production. […] Samples were incubated at room temperature for 10 min and absorbency was measured at 540 nm with the use of a microplate reader. Nitrite concentrations were calculated using a sodium nitrite standard curve.
Effects of melanocortin peptides on cytokine and NO production were evaluated by repeated measures analysis of variance followed by Dunnet's test for specific comparisons. […]

[1] = test system: edema caused by intradermal injection of human recombinant IL-1β in the mouse ear; test: Ear edema by intradermal recombinant human IL-1β; assay type: in vivo, BALB/c mice; conditions: centrally administered peptide, propranolol injected centrally
Protocol: Female BALB/c mice (Simonsen Laboratories, Gilroy, Calif.), 7-8 weeks old, were housed at 23-25° C. in groups not exceeding five animals per cage [28 cm (L)×18 cm (W)×13 cm (H)]. Before the experiments they were acclimatized for not less than 1 week before experimentation to standard lighting and temperature conditions with food and water freely available.
Mice were anesthetized with 10% pentobarbital sodium solution (1 mg/mouse, 50 mg/ml, Nembutal sodium solution; Abbott Laboratories, North Chicago, Ill.). Baseline ear thickness measurements were taken with a spring-loaded micrometer (Swiss Precision Instruments, Los Angeles, Calif.). Ear thickness was expressed in cubic centimeters and was measured at least twice at each time point. The average thickness of unstimulated ears was […]. Inflammation was induced by intradermal injection of 20 μl of recombinant human IL-1β (1500 U; Genzyme, Cambridge, Mass.) in one ear of each mouse using a 28 gauge needle (Hiltz et al., 1992). Measures of ear thickness were repeated 4 and 6 hr later, while the mice were under sodium pentobarbital anesthesia. Edema was assessed by subtracting baseline measures from 4 and 6 hr readings for each animal. α-MSH (11-13) (1663.9 gm/mol; Peninsula Laboratories, Belmont, Calif.) or α-MSH (11-13) (383.48 gm/mol; Peninsula Laboratories) dissolved in saline was injected intracerebroventricularly (20 μl) using procedures described previously (Lipton et al., 1991; Lipton and Catania, 1993).
Several agents were administered at the time of ear challenge to pharmacologically block certain receptors: atropine (Sigma Chemical Co.; 150 μg i.p.), a muscarinic receptor blocker that acts on autonomic end-organ receptors, was chosen because of links between inflammation and modulation of pain and the finding that muscarinic antagonists increase pain threshold (Hartvig et al., 1989); phentolamine (Sigma; 150 μg i.p.) an agent that competes for occupancy of α-adrenergic receptors; propranolol (Sigma; 150 μg, i.p.; 30 μg, i.c.v.), a nonspecific competitive antagonist for β-adrenergic receptors.
(§1) Because of the size of the experiments and the requirement for several shipments of animals over time, several experiments were performed, each with complete treatment and control groups drawn from the same shipment of mice. Omnibus analysis of variance techniques (Dynastat, Washington, D.C.) were used to test overall differences among group means. Tukey's protected t test was used to compare individual means. Probability values of <0.05 were considered significant.

[2] = test system: inflammation induced in the hind paw; test: Kappa carrageenan-induced hind paw inflammation, spinal cord intact or transected; assay type: in vivo, BALB/c mice; conditions: for inhibition of hind paw inflammation: central administration, spinal cord intact mice
Protocol: Because surgical dissection of trigeminal structures that innervate the ear of the mouse is very difficult, tests to learn whether descending neural pathways are essential to the anti-inflammatory activity of centrally administered α-MSH peptides were performed in mice with inflammation induced in a hind paw. In these experiments, each animal was anesthetized with pentobarbital sodium solution as above. Baseline footpad thickness of both hind paws was measured with a spring-loaded micrometer (Swiss Precision Instruments, Los Angeles, Calif.). Paw thickness was expressed in units of 10^−3 cm; average thickness of unstimulated paws was 171.5×10^−3 cm across shipments of animals. Kappa carrageenan (Sigma) dissolved in saline (0.05%, 20 μl) was injected (28 gauge allergy test syringe) into one footpad, and saline (20 μl) was injected into the other. For the analyses, the increase in thickness of the control saline-injected paw of each animal was subtracted from that of the carrageenan-injected paw, to eliminate the influence of mechanical injury and volume of the injected fluid. To be certain that mice with severed spinal cords can react to anti-inflammatory agents, prednisolone (2.5 mg/mouse (IP injection)) was administered to 10 mice with spinal transection and inflammation induced by carrageenan. Treatment with the locally acting steroid reduced swelling up to 29% (average, relative to saline controls) at 4.5 h. after carrageenan.
However, a standardized crushing of lumbar vertebrae with a hemostat was effective in severing the cord; no deaths were caused by this treatment. […] The experiments were limited to 4.5 h to reduce problems of bowel and bladder dysfunction. Immediately after the 4.5 h measurements all mice were killed with an overdose of sodium pentobarbital.
as §1

SYSMEHFRWGKPV [α-MSH (1-13)]
reduction of production of NO2^− (NO2^−): 42% | inhibition of ear edema ([1]; 4 hr): 36% | inhibition of ear edema ([1]; 6 hr): 32% | inhibition of hind paw inflammation ([2]; 3 h): 57% | inhibition of hind paw inflammation ([2]; 4.5 h): 29% | anti-inflammatory effect after spinal cord transection ([2]; centrally administered): significantly reduced the anti-inflammatory effect | anti-inflammatory effect after spinal cord transection ([2]; given intraperitoneally): significant, although smaller, inhibitory effect later in the period
